# From patent US20200113902A1, “COMPOSITIONS AND METHODS FOR TREATING CANCERS WITH COVALENT INHIBITORS OF CYCLIN-DEPENDENT KINASE 7 (CDK7)” (Syros Pharmaceuticals, Inc., priority 2017, published 2020)
# Key:
# OV15398 xenograft = test: Ovarian PDX OV15398, tumor volume; type: in vivo, mouse; conditions: OV15398 (very low CDKN2A); 40 or 30 mg/kg i.v. BIW
# Protocol: Patient-derived xenograft (PDX) models from ovarian carcinoma patients (OV5387, OV14702, OV14972, OV15398, OV15576, OV15696, OV15612, OV15631) were established in NOD-SCID mice at Crown Bioscience (San Diego, USA). Cryo vials containing tumor cells were thawed and prepared for injection into mice. Cells were washed in PBS, counted, and resuspended in cold PBS at a concentration of 50,000-100,000 viable cells/100 ul. Cell suspensions were mixed with an equal volume of Cultrex ECM and kept on ice during transport to the vivarium. Cells were prepared for injections by withdrawing ECM-Cell mixture into a chilled slip-tip syringe fitted with a 26G 7/8 (0.5 mm×22 mm) needle. The filled syringes were kept on ice to avoid the solidification of ECM. Each mouse was inoculated subcutaneously in the right flank with 200 uL of the cell suspension. Tumor sizes were measured in two dimensions using a caliper, and the volumes were expressed in mm3 using the formula: V=0.5 a×b^2 where a and b are the longest and shortest diameters of the tumor, respectively. Compound 1 treatment was started when the average tumor size reached 150-200 mm^3.
# Compound 1 was formulated in w/v 20% Captisol (pH 4-6) and administered by i.v. twice weekly (BIW) at a final dose of 40 mg/kg or 30 mg/kg in a 10 ml/kg volume. Tumor volumes were measured twice weekly over the course of the study. […]
# [1] = system: MCL1 protein in CAL-120 cells; test: Western blot of BCL2 family proteins, CAL-120; type: cell-based, human; conditions: 50 nM or 100 nM, 24 hours
# Protocol: Cytotoxic cancer cell lines HCC70 and TOV21G, and cytostatic cancer cell lines T47D and COV318 were seeded in wells of a six-well dish at a density of 1×10^6 cells/well and allowed to adhere overnight. Cells were then treated with 50 nM of Compound 1 for 16 or 24 hours, or with DMSO (0 hours) representing a negative control. Cells were harvested and placed on ice, and resuspended in RIPA lysis buffer supplemented with protease and phosphatase inhibitors. Clarified lysates prepared with 4×LSD running buffer and boiled at 95° C. for 5 minutes. Equivalent amounts of sample (10 μg total protein) were run on a 4-12% Bis-Tris gel and transferred to a PDVF membrane for Western blotting using standard Western blotting protocols. Membranes were blocked with Licor TBS blocking buffer then probed with antibodies for BCL-XL, BCL-2, MCL1, BID, and GAPDH visualized using and Odyssey imager (FIGS. 23A and 23D).
# In a similar experiment, TNBC breast cancer cell lines HCC70, MDAMB468, MDAMB453 and CAL-120 were grown as described above and treated with DMSO, 50 nM Compound 1 or 100 nM Compound 1 for 24 hours. Protein samples were prepared as described above for Western blotting using antibodies specific for the indicated proteins in FIG. 29A. […]
# [2] = system: Rad51, CHEK1 and CHEK2 RNA in THP1 cells; test: Microarray RNA levels of DNA damage repair genes, THP1; type: cell-based; conditions: THP1 AML cells; 100 nM, 6 hrs
# Protocol: THP1 is an AML cell line. THP1 cells (1×10^6/well) were plated in 6-well plates and treated with vehicle (DMSO), 100 nM Compound 1, 25 nM NVP2 (a CDK9 inhibitor), 250 nM JQ1 (a BRD4 inhibitor) or 200 nM Flavopiridol (a pan-CDK inhibitor) for 6 hrs, after which cells were harvested and total RNA (1,000 ng) isolated. RNA levels of the DNA damage repair genes Rad51, CHEK1 and CHEK2 were analyzed by microarray. Experiments were done in triplicates. We performed RMA normalization of the data using the “affy” package from Bioconductor. The command used is shown below and includes background correction, normalization and summarization:
# Next, we performed loess normalization using only spike-ins to enable comparison of expression values across multiple samples.
structure (smiles),measurement,setting,value
"CN(C)C/C=C/C(=O)Nc1ccc(C(=O)N[C@@]2(C)CCC[C@@H](Nc3ncc(Cl)c(-c4c[nH]c5ccccc45)n3)C2)nc1 [Compound 1, N-((1S,3R)-3-(5-chloro-4-(1H-indol-3-yl)pyrimidin-2-ylamino)-1-methylcyclohexyl)-5-((E)-4-(dimethylamino)but-2-enamido)picolinamide]",Response to treatment (tumor growth),OV15398 xenograft,responded
same,MCL1 protein level (Western blot),[1],downregulated
same,"mRNA expression from genes involved in DNA repair (Rad51, CHEK1, CHEK2)",[2],Downregulation
